Measurements published in patent US8637499B2, “Benzoxazepines as inhibitors of PI3K/mTOR and methods of their use and manufacture” (Exelixis, Inc., priority 2009, dated 2014).
pIC50: −log10 of the molar value. Read-outs that look alike come from different tables or passages of the source.

Key:
PI3Kα = PI3Kα (Homo sapiens, UniProt P42336); test: PI3K Biochemical Assays (ATP consumption, luciferase-luciferin chemiluminescence); details: PI3Kα 1.5 nM, ATP 1 μM, PIP2 10 μM; percent of ATP consumed
Procedure, shortened: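 Kinase activity read as percent ATP consumed via luciferase-luciferin chemiluminescence. 1.5 nM enzyme, 1 μM ATP, 10 μM PIP2 in 50 mM Tris pH 7.5, 1 mM EGTA, 10 mM MgCl2, 1 mM DTT, 0.03% CHAPS; ~2 h at ambient temperature, ATP consumption kept to 40-60%.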

mTORC1 (mTOR/GbL/Raptor) = mTORC1 (mTOR/GbL/Raptor) (Homo sapiens, UniProt P42345); test: mTOR/GbL/Raptor (mTORC1) ELISA Assay; format: biochemical; details: 0.2 nM mTORC1, 10 μM ATP, 50 nM NHis-tagged 4E-BP1, phosphorylation of 4E-BP1; for pIC50: read-out: IC50
Procedure, shortened: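 mTORC1 (0.2 nM) phosphorylated NHis-tagged 4E-BP1 (50 nM) with 10 μM ATP in 20 mM Hepes pH 7.2, 10 mM MnCl2, for 120 min at ambient temperature. Product was captured on Ni-chelate plates and detected with anti-phospho-4E-BP1 plus HRP secondary antibody by chemiluminescence.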

Sequence of PI3Kα (P42336 whole entry): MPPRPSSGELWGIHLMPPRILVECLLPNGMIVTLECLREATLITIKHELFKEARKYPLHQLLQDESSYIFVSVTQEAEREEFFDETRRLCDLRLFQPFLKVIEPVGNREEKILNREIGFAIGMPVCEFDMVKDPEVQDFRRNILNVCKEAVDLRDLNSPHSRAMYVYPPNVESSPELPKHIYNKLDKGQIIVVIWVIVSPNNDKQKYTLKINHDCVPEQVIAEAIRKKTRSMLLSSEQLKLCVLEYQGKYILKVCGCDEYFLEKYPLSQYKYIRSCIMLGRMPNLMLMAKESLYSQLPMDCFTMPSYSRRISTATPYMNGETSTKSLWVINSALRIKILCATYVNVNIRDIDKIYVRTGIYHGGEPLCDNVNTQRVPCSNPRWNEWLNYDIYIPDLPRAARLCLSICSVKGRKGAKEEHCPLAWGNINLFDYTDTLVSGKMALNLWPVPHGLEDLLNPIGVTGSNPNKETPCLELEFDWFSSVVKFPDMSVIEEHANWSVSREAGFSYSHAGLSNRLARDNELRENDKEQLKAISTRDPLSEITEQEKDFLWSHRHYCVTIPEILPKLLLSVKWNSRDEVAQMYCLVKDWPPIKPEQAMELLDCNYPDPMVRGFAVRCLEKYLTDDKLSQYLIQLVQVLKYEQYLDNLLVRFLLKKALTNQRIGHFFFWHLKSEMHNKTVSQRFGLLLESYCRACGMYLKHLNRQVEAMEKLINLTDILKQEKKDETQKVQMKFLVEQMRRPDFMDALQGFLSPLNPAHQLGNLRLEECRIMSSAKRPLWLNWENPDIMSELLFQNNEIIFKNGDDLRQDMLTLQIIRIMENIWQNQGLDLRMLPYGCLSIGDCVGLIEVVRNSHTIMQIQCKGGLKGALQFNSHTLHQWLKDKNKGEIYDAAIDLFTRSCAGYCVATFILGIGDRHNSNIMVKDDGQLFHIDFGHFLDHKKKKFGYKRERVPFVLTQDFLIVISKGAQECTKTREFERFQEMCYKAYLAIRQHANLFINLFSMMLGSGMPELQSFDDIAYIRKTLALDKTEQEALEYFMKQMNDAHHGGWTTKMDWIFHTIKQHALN
Sequence of PI3Kα (P27986 whole entry partner): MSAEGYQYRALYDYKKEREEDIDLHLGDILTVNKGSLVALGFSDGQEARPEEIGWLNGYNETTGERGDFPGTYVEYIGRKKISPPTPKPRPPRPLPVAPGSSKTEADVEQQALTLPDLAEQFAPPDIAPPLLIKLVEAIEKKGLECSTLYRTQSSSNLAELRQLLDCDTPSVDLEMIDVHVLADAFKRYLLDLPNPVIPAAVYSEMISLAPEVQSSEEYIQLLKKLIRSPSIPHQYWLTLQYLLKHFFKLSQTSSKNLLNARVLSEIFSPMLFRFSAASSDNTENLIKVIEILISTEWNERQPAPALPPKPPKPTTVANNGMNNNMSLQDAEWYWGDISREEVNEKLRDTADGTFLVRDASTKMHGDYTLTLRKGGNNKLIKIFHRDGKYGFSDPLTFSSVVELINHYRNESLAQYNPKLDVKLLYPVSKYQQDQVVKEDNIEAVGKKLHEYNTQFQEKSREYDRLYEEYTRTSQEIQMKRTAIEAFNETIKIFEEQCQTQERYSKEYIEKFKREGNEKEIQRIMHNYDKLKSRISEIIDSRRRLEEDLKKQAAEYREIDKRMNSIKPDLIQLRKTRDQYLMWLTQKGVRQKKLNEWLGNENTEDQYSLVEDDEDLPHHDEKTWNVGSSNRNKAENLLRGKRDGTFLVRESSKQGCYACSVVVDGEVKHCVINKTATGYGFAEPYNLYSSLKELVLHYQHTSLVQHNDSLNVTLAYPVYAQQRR

SMILES: Cc1nc2ccc(-c3ccc4c(c3)CN(C(=O)N3CCN(c5ccc(C(F)(F)F)cn5)CC3)CCO4)cc2[nH]1 [Compound 150, 7-(2-methyl-1H-benzimidazol-6-yl)-4-({4-[5-(trifluoromethyl)pyridin-2-yl]piperazin-1-yl}carbonyl)-2,3,4,5-tetrahydro-1,4-benzoxazepine]
- pIC50 (PI3Kα): 6.00 to 6.30
- IC50 (mTORC1 (mTOR/GbL/Raptor)): not active

SMILES: COC(=O)Nc1nc2ncc(-c3ccc4c(c3)CN(C(=O)N3CCC(C)CC3)CCO4)cc2[nH]1 [Compound 41, methyl (6-{4-[(4-methylpiperidin-1-yl)carbonyl]-2,3,4,5-tetrahydro-1,4-benzoxazepin-7-yl}-1H-imidazo[4,5-b]pyridin-2-yl)carbamate]
- pIC50 (PI3Kα): ≥ 7.12
- pIC50 (mTORC1 (mTOR/GbL/Raptor)): ≥ 7.30

SMILES: Nc1nc2ccc(-c3ccc4c(c3)CN(C(=O)N3CCC(=O)CC3c3ccc(F)c(F)c3)CCO4)cc2[nH]1 (stereo not shown) [Compound 27, 1-{[7-(2-amino-1H-benzimidazol-6-yl)-2,3-dihydro-1,4-benzoxazepin-4(5H)-yl]carbonyl}-2-(3,4-difluorophenyl)piperidin-4-one]
- pIC50 (PI3Kα): 6.70 to 7.12
- pIC50 (mTORC1 (mTOR/GbL/Raptor)): ≥ 7.30

SMILES: Cc1nc2ccc(-c3ccc4c(c3)CN(C(=O)N3CCC(O)CC3)CCO4)cc2[nH]1 [Compound 68, 1-{[7-(2-methyl-1H-benzimidazol-6-yl)-2,3-dihydro-1,4-benzoxazepin-4(5H)-yl]carbonyl}piperidin-4-ol]
- pIC50 (PI3Kα): 5.52 to 6.00
- pIC50 (mTORC1 (mTOR/GbL/Raptor)): 6.15 to 6.60

SMILES: COC(=O)Nc1nc2ccc(-c3ccc4c(c3)CN(C(=O)N3[C@@H]5CC[C@H]3C[C@](O)(C(F)(F)F)C5)CCO4)cc2[nH]1 [Compound 20, methyl [6-(4-{[3-(endo)-hydroxy-3-(trifluoromethyl)-8-azabicyclo[3.2.1]oct-8-yl]carbonyl}-2,3,4,5-tetrahydro-1,4-benzoxazepin-7-yl)-1H-benzimidazol-2-yl]carbamate]
- pIC50 (PI3Kα): ≥ 7.12
- pIC50 (mTORC1 (mTOR/GbL/Raptor)): ≥ 7.30

SMILES: O=C(N1CCC(C(F)(F)F)CC1)N1CCOc2ccc(-c3ccc(-c4ncc[nH]4)cc3)cc2C1 [Compound 7, 7-[4-(1H-imidazol-2-yl)phenyl]-4-{[4-(trifluoromethyl)piperidin-1-yl]carbonyl}-2,3,4,5-tetrahydro-1,4-benzoxazepine]
- pIC50 (PI3Kα): ≥ 7.12
- pIC50 (mTORC1 (mTOR/GbL/Raptor)): ≥ 7.30

SMILES: Cc1nc2ccc(-c3ccc4c(c3)CN(C(=O)N3CCc5ccccc5C3)CCO4)cc2[nH]1 [Compound 113, 4-(3,4-dihydroisoquinolin-2(1H)-ylcarbonyl)-7-(2-methyl-1H-benzimidazol-6-yl)-2,3,4,5-tetrahydro-1,4-benzoxazepine]
- pIC50 (PI3Kα): 6.00 to 6.30
- pIC50 (mTORC1 (mTOR/GbL/Raptor)): 6.60 to 7.30

SMILES: Cc1nc2cc(-c3ccc4c(c3)CN(C(=O)N3CCC(=O)CC3c3cccc(F)c3)CCO4)cnc2[nH]1 (stereo not shown) [Compound 51, 2-(3-fluorophenyl)-1-{[7-(2-methyl-3H-imidazo[4,5-b]pyridin-6-yl)-2,3-dihydro-1,4-benzoxazepin-4(5H)-yl]carbonyl}piperidin-4-one]
- pIC50 (PI3Kα): 6.30 to 6.70
- pIC50 (mTORC1 (mTOR/GbL/Raptor)): 6.60 to 7.30

SMILES: COC(=O)Nc1nc2ccc(-c3ccc4c(c3)CN(C(=O)N3CCC(C)(O)CC3)CCO4)cc2[nH]1 [Compound 24, methyl (6-{4-[(4-hydroxy-4-methylpiperidin-1-yl)carbonyl]-2,3,4,5-tetrahydro-1,4-benzoxazepin-7-yl}-1H-benzimidazol-2-yl)carbamate]
- pIC50 (PI3Kα): 6.30 to 6.70
- pIC50 (mTORC1 (mTOR/GbL/Raptor)): 6.15 to 6.60

SMILES: Cc1nc2ccc(-c3ccc4c(c3)CN(C(=O)N3CCC(c5ccccc5)C3)CCO4)cc2[nH]1 (stereo not shown) [Compound 98, 7-(2-methyl-1H-benzimidazol-6-yl)-4-[(3-phenylpyrrolidin-1-yl)carbonyl]-2,3,4,5-tetrahydro-1,4-benzoxazepine]
- pIC50 (PI3Kα): 6.00 to 6.30
- pIC50 (mTORC1 (mTOR/GbL/Raptor)): 6.60 to 7.30

SMILES: Cc1nc2ccc(-c3ccc4c(c3)CN(C(=O)N3CCCCC3c3ccc(F)cc3)CCO4)cc2[nH]1 (stereo not shown) [Compound 73, 4-{[2-(4-fluorophenyl)piperidin-1-yl]carbonyl}-7-(2-methyl-1H-benzimidazol-6-yl)-2,3,4,5-tetrahydro-1,4-benzoxazepine]
- pIC50 (PI3Kα): ≥ 7.12
- pIC50 (mTORC1 (mTOR/GbL/Raptor)): ≥ 7.30
